Measurements taken from US7527952B2 (Vertex Pharmaceuticals Incorporated, priority 1996, dated 2009).

Assays:
[1] = compared with MPA; cited from earlier work
[2] = test system: human type II IMPDH mutants of Ser 275, Ser 327 and Gln 368; assay: MPA inhibition of IMPDH mutants of other active site residues; assay type: biochemical; settings: mutations of Ser 275, Ser 327 and Gln 368
Method: Residues which make direct contact with MPA also were modified.
Cultures (500 ml) were grown at 37° C. for 14 to 16 hours after IPTG induction, and typically yielded 2 grams of cell paste. Cells were resuspended in 50 mM Tris, pH 8.0, 150 mM KCl, 3 mM EDTA, 2 mM DTT buffer containing 10% urea, and then lysed by addition of lysozyme (1 mg/g cell paste) and sonication. IMPDH wild-type and mutant proteins were precipitated from crude lysates by 25% w/v ammonium sulfate. Up to 150 mgs of at least 65%-70% pure IMPDH was obtained by this single purification step. The partially purified IMPDH was resuspended in 50 mM Tris, pH 8.0, 100 mM KCl, 3 mM EDTA, 2 mM DTT, 10% glycerol buffer and used for kinetic analysis. Second order rate constants (k cat/Km, M^−1sec^−1) were calculated from IMP titration data at saturating (400 mM). NAD concentration obtained by monitoring the rate of NADH production at 340 nm at 37° C. […] Ki app. values for MPA were obtained from the rate vs. inhibitor data of IMPDH mutants at saturating IMP and NAD concentrations.

murine blastoma cells = settings: cells selected for resistance, carrying the Thr 333 to Ile mutation; cited from earlier work

Row | Compound | fold less potent than MPA in a cellular assay [1] | effect of mutation on drug inhibition [2] | increased resistance to MPA (murine blastoma cells)
1 | COc1c(CC=C(C)CCC(=O)O)cc2c(c1C)COC2=O [des-hydroxy-MPA] | at least 1,000 fold | – | –
2 | mycophenolic acid [MPA] | – | little effect | 10,000 fold
